Results taken from patent publication US8278441B2, “BACE inhibitors” (Eli Lilly and Company, priority 2009, dated 2012).
Where a name gives a salt, the structure may show the parent alone. Read-outs that look alike come from different tables or passages of the source.

Tests used:
[1] = target: T1, native, endogenous murine BACE1 in PDAPP primary cortical neurons (Mus musculus, UniProt P56818); assay: PDAPP primary neuronal assay (Abeta ELISA); assay type: cell-based; details: primary cortical neurons from PDAPP embryos, 24 h
T1 construct: endogenous in cells; host or cells: primary cortical neurons from Embryonic Day 16 PDAPP transgenic mouse embryos
T1 sequence (P56818 46-501): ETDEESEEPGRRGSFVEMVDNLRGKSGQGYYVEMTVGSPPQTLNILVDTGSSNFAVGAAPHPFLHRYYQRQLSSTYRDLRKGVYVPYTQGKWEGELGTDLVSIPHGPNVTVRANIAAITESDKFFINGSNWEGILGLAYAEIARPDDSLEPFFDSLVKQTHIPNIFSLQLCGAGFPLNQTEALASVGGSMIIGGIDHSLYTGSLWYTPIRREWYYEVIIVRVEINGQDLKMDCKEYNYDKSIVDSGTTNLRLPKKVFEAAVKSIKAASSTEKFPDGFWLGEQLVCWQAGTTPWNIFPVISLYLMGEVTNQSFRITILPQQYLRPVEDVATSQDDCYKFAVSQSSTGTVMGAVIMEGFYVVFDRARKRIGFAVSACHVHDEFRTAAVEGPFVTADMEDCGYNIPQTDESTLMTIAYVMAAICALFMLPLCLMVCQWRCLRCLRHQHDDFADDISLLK

[2] = target: T2, native endogenous human BACE1 in HEK293/APP751sw cells (Homo sapiens, UniProt P56817); assay: HEK293Swe whole cell assay (Abeta ELISA); assay type: cell-based
T2 construct: endogenous in cells; host or cells: HEK293p (ATCC CRL-1573) stably expressing APP751sw
T2 sequence (P56817 46-501): as the sequence (P56818 46-501) above, with S6P, I162V, I165L, T180S, A182V, V340I, A393L, H443Q counted along it

[3] = target: T3, human BACE1(1-460):Fc (Homo sapiens, UniProt P56817); assay: BACE1 FRET assay; assay type: biochemical; details: purified recombinant human BACE1(1-460):Fc, FRET substrate, pH 4.6
T3 construct: made in house; host or cells: HEK293 cells, transient transfection; purified from conditioned media by Protein A chromatography
T3 sequence (P56817 22-460): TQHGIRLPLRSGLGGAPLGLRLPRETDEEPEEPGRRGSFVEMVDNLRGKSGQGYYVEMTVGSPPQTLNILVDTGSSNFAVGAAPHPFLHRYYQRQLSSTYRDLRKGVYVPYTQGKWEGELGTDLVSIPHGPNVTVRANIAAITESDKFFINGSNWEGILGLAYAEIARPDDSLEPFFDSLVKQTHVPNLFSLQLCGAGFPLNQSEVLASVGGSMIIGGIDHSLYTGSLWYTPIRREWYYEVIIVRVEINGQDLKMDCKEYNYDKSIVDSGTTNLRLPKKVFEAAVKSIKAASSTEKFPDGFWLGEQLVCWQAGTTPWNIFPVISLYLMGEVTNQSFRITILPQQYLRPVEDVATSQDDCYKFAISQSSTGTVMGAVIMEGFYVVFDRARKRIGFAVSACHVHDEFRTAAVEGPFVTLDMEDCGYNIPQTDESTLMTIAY

[4] = tested on: beta-secretase; assay: In vivo inhibition of beta-secretase in PDAPP mice; details: 3 hours; for Abeta 1-x peptide level reduction in brain cortex / C99 level reduction in brain cortex / sAPPb level reduction in brain cortex: young female PDAPP mice, vs vehicle-treated mice
Text: Several animal models, including mouse, guinea pig, dog, and monkey, may be used to screen for inhibition of beta-secretase activity in vivo following compound treatment. Animals used in this invention can be wild type, transgenic, or gene knockout animals. For example, the PDAPP mouse model, prepared as described in Games et al., Nature 373, 523-527 (1995), and other non-transgenic or gene knockout animals are useful to analyze in vivo inhibition of Abeta and sAPPbeta production in the presence of inhibitory compounds. Generally, 2 to 12 month old PDAPP mice, gene knockout mice or non-transgenic animals are administered compound formulated in vehicles, such as corn oil, cyclodextran, phosphate buffers, PHARMASOLVE®, or other suitable vehicles. One to twenty-four hours following the administration of compound, animals are sacrificed, and brains as well as cerebrospinal fluid and plasma are removed for analysis of Abetas, C99, and sAPP fragments. (See Dovey, et al., Journal of Neurochemistry, 76, 173-181 (2001); and Johnson-Wood, et al., Proc. Natl. Acad. Sci. USA, 94, 1550-1555 (1997)).
For standard in vivo pharmacology studies, animals are dosed with various concentrations of compound and compared to a vehicle-treated control group dosed at the same time. For some time course studies, brain tissue, plasma, or cerebrospinal fluid is obtained from selected animals, beginning at time 0 to establish a baseline. Compound is administered to other groups and sacrificed at various times after dosing. Brain tissue, plasma, or cerebrospinal fluid is obtained from selected animals and analyzed for the presence of APP cleavage products, including Abeta peptides, sAPPbeta, and other APP fragments, for example, by specific sandwich ELISA assays. At the end of the test period, animals are sacrificed and brain tissues, plasma, or cerebrospinal fluid are analyzed for the presence of Abeta peptides, C99, and sAPPbeta, as appropriate. Brain tissues of APP transgenic animals are also analyzed for the amount of beta-amyloid plaques following compound treatment.

[5] = Abeta 1-40, read-out: PDAPP Neuron A-beta (1-40) ELISA IC50
[6] = Abeta 1-42, read-out: PDAPP Neuron A-beta (1-42) ELISA IC50
[7] = Abeta 1-40 in conditioned media, read-out: HEK 293 Swe A-beta (1-40) ELISA IC50
[8] = Abeta 1-42 in conditioned media, read-out: HEK 293 Swe A-beta (1-42) ELISA IC50

Row | Compound | IC50 [1, 5] | IC50 [1, 6] | IC50 [2, 7] | IC50 [2, 8] | IC50 [3] | CSF Abeta 1-42 level reduction ([4]; CSF, 10 mg/kg oral) | CSF Abeta 1-x level reduction ([4]; CSF, 10 mg/kg oral) | CSF sAPPalpha levels ([4]; CSF, 10 mg/kg oral) | CSF sAPPbeta level reduction ([4]; CSF, 10 mg/kg oral) | Abeta 1-x peptide level reduction in brain cortex ([4]; 10 mg/kg oral) | C99 level reduction in brain cortex ([4]; 10 mg/kg oral) | sAPPb level reduction in brain cortex ([4]; 10 mg/kg oral) | Abeta 1-x peptide level reduction in brain cortex ([4]; 10 mg/kg subcutaneous) | C99 level reduction in brain cortex ([4]; 10 mg/kg subcutaneous) | sAPPb level reduction in brain cortex ([4]; 10 mg/kg subcutaneous)
1 | NC1=N[C@@]2(c3cccc(-c4cncnc4)c3)C[C@H](O)C[C@H]2CS1 (racemic) [Example 32, Racemic (4aRS,6RS,7aSR)-2-Amino-7a-(3-(pyrimidin-5-yl)phenyl)-4,4a,5,6,7,7a-hexahydrocyclopenta[d][1,3]thiazin-6-ol dihydrochloride] | 436 nM | 352 nM | 670 nM | 173 nM | 346 nM | – | – | – | – | – | – | – | – | – | –
2 | Cl.NC1=N[C@@]2(c3cc(NC(=O)c4ccc(F)cn4)ccc3F)COC[C@H]2CS1 [Example 1, N-(3-((4aS,7aS)-2-Amino-4a,5,7,7a-tetrahydro-4H-furo[3,4-d][1,3]thiazin-7a-yl)-4-fluorophenyl)-5-fluoropicolinamide hydrochloride] | – | – | – | – | – | approximately 62% | approximately 62% | unchanged | 22% | approximately 54% | ~34% | ~42% | approximately 64% | ~60% | ~44%
3 | NC1=N[C@@]2(c3cc(NC(=O)c4nccs4)ccc3F)CCOC[C@H]2CS1 [Example 8, N-(3-((8aS)-2-Amino-4,4a,5,7,8,8a-hexahydropyrano[4,3-d][1,3]thiazin-8a-yl)-4-fluorophenyl)thiazole-2-carboxamide hydrochloride] | 32.8 nM | 41.3 nM | 78 nM | 89.6 nM | 179 nM | – | – | – | – | – | – | – | – | – | –
4 | NC1=N[C@@]2(c3cccc(-c4cncnc4)c3)CCCC[C@H]2CS1 [Example 25, (8aS)-8a-(3-(Pyrimidin-5-yl)phenyl)-4a,5,6,7,8,8a-hexahydro-4H-benzo[d][1,3]thiazin-2-amine dihydrochloride] | 734 nM | 659 nM | 1360 nM | 1150 nM | 731 nM | – | – | – | – | – | – | – | – | – | –
